From ChEMBL document CHEMBL1201861, “Genomics of Drug Sensitity in Cancer screening data, Wellcome Trust Sanger Institute”

Legend:
Assay in all cases: cells
Assay type in all cases: functional, cell-based, Homo sapiens
LB373-MEL-D = conditions: Homo sapiens, LB373-MEL-D;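 note: growth inhibition of the cell line, read out in a cell viability assay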
Description: SANGER: Inhibition of human LB373-MEL-D cell growth in a cell viability assay.

J-RT3-T3-5 = conditions: Homo sapiens, J-RT3-T3-5;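 note: cell viability assay measuring growth inhibition of human J-RT3-T3-5 cells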
Description: SANGER: Inhibition of human J-RT3-T3-5 cell growth in a cell viability assay.

SNU-C2B = conditions: Homo sapiens, SNU-C2B;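 note: cell viability readout used to measure compound-driven suppression of SNU-C2B cell proliferation, IC50 marking half-maximal growth inhibition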
Description: SANGER: Inhibition of human SNU-C2B cell growth in a cell viability assay.

KINGS-1 = conditions: Homo sapiens, KINGS-1;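 note: cell viability assay measuring suppression of KINGS-1 cell growth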
Description: SANGER: Inhibition of human KINGS-1 cell growth in a cell viability assay.

MOLT-4 = conditions: Homo sapiens, MOLT-4;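 note: growth inhibition of MOLT-4 cells, determined with a cell viability readout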
Description: SANGER: Inhibition of human MOLT-4 cell growth in a cell viability assay.

EW-13 = conditions: Homo sapiens, EW-13;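 note: growth inhibition of EW-13 cells, read out with a cell viability assay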
Description: SANGER: Inhibition of human EW-13 cell growth in a cell viability assay.

NCI-H1770 = conditions: Homo sapiens, NCI-H1770;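 note: growth inhibition of NCI-H1770 cells determined with a viability readout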
Description: SANGER: Inhibition of human NCI-H1770 cell growth in a cell viability assay.

A101D = conditions: Homo sapiens, A101D;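 note: growth inhibition of the cell line, measured with a viability assay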
Description: SANGER: Inhibition of human A101D cell growth in a cell viability assay.

A704 = conditions: Homo sapiens, A704;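 note: growth inhibition of human A704 cells, read out with a cell viability assay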
Description: SANGER: Inhibition of human A704 cell growth in a cell viability assay.

SW 962 = conditions: Homo sapiens, SW 962;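 note: growth inhibition of human SW962 cells, read out by a cell viability assay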
Description: SANGER: Inhibition of human SW962 cell growth in a cell viability assay.

SK-NEP-1 = conditions: Homo sapiens, SK-NEP-1;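 note: growth inhibition of human SK-NEP-1 cells, read out by a cell viability assay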
Description: SANGER: Inhibition of human SK-NEP-1 cell growth in a cell viability assay.

CTV-1 = conditions: Homo sapiens, CTV-1;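 note: growth inhibition of the cell line, read out with a cell viability assay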
Description: SANGER: Inhibition of human CTV-1 cell growth in a cell viability assay.

MFM-223 = conditions: Homo sapiens, MFM-223
Description: SANGER: Inhibition of human MFM-223 cell growth in a cell viability assay.

GT3TKB = conditions: Homo sapiens, GT3TKB;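 note: growth inhibition of the cell line, read out with a cell viability assay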
Description: SANGER: Inhibition of human GT3TKB cell growth in a cell viability assay.

MHH-PREB-1 = conditions: Homo sapiens, MHH-PREB-1;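 note: cell viability assay measuring inhibition of proliferation of human MHH-PREB-1 cells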
Description: SANGER: Inhibition of human MHH-PREB-1 cell growth in a cell viability assay.

D-392MG = conditions: Homo sapiens, D-392MG
D-263MG = conditions: Homo sapiens, D-263MG
Description: SANGER: Inhibition of human D-263MG cell growth in a cell viability assay.

HOP-62 = conditions: Homo sapiens, HOP-62;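 note: cell growth inhibition determined with a viability assay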
Description: SANGER: Inhibition of human HOP-62 cell growth in a cell viability assay.

BT-474 = conditions: Homo sapiens, BT-474
Description: SANGER: Inhibition of human BT-474 cell growth in a cell viability assay.

MLMA = conditions: Homo sapiens, MLMA;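 note: growth inhibition of MLMA cells (human), determined through a cell viability readout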
Description: SANGER: Inhibition of human MLMA cell growth in a cell viability assay.

OCI-AML2 = conditions: Homo sapiens, OCI-AML2;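 note: growth inhibition of OCI-AML2 cells, read out with a cell viability assay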
Description: SANGER: Inhibition of human OCI-AML2 cell growth in a cell viability assay.

EKVX = conditions: Homo sapiens, EKVX;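 note: growth inhibition of human EKVX cells, read out with a cell viability assay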
Description: SANGER: Inhibition of human EKVX cell growth in a cell viability assay.

IST-MES1 = conditions: Homo sapiens, IST-MES1;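 note: growth inhibition of IST-MES1 cells, measured with a cell viability assay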
Description: SANGER: Inhibition of human IST-MES1 cell growth in a cell viability assay.

OS-RC-2 = conditions: Homo sapiens, OS-RC-2;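 note: growth inhibition of human OS-RC-2 cells, measured by a cell viability assay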
Description: SANGER: Inhibition of human OS-RC-2 cell growth in a cell viability assay.

EW-1 = conditions: Homo sapiens, EW-1
Description: SANGER: Inhibition of human EW-1 cell growth in a cell viability assay.

LAMA-84 = conditions: Homo sapiens, LAMA-84;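 note: growth inhibition of LAMA-84 cells, read out with a cell viability assay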
Description: SANGER: Inhibition of human LAMA-84 cell growth in a cell viability assay.

DMS-79 = conditions: Homo sapiens, DMS-79;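 note: growth inhibition measured with a cell viability assay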
Description: SANGER: Inhibition of human DMS-79 cell growth in a cell viability assay.

CW-2 = conditions: Homo sapiens, CW-2;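 note: growth inhibition of CW-2 cells, read out by a cell viability assay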
Description: SANGER: Inhibition of human CW-2 cell growth in a cell viability assay.

PSN1 = conditions: Homo sapiens, PSN1;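 note: suppression of growth of human PSN1 cells, read out by a cell viability assay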
Description: SANGER: Inhibition of human PSN1 cell growth in a cell viability assay.

EOL1 = conditions: Homo sapiens, EOL1;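 note: growth inhibition of EoL-1 cells, read out by a cell viability assay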
Description: SANGER: Inhibition of human EoL-1-cell cell growth in a cell viability assay.

LXF-289 cell line = conditions: Homo sapiens, LXF-289
Description: SANGER: Inhibition of human LXF-289 cell growth in a cell viability assay.

RPMI-8226 = conditions: Homo sapiens, RPMI-8226
Description: SANGER: Inhibition of human RPMI-8226 cell growth in a cell viability assay.

KMOE-2 = conditions: Homo sapiens, KMOE-2;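 note: growth inhibition of human KMOE-2 cells, read out with a cell viability assay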
Description: SANGER: Inhibition of human KMOE-2 cell growth in a cell viability assay.

KURAMOCHI = conditions: Homo sapiens, KURAMOCHI;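 note: growth inhibition of KURAMOCHI cells, read out with a cell viability assay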
Description: SANGER: Inhibition of human KURAMOCHI cell growth in a cell viability assay.

NCI-H1355 = conditions: Homo sapiens, NCI-H1355;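 note: growth inhibition of human NCI-H1355 cells, read out by a cell viability assay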
Description: SANGER: Inhibition of human NCI-H1355 cell growth in a cell viability assay.

SW982 = conditions: Homo sapiens, SW982;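 note: growth inhibition of SW982 cells, read out with a cell viability assay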
Description: SANGER: Inhibition of human SW982 cell growth in a cell viability assay.

BB65-RCC = conditions: Homo sapiens, BB65-RCC;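 note: growth inhibition of the cell line, measured with a cell viability assay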
Description: SANGER: Inhibition of human BB65-RCC cell growth in a cell viability assay.

HT-144 = conditions: Homo sapiens, HT-144
Description: SANGER: Inhibition of human HT-144 cell growth in a cell viability assay.

RKO = conditions: Homo sapiens, RKO;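 note: growth inhibition of human RKO cells, read out with a cell viability assay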
Description: SANGER: Inhibition of human RKO cell growth in a cell viability assay.

KG-1 = conditions: Homo sapiens, KG-1;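 note: growth inhibition of KG-1 cells, read out by a cell viability assay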
Description: SANGER: Inhibition of human KG-1 cell growth in a cell viability assay.

SCC-15 = conditions: Homo sapiens, SCC-15;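 note: growth inhibition of SCC-15 cells, read out with a cell viability assay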
Description: SANGER: Inhibition of human SCC-15 cell growth in a cell viability assay.

GI-ME-N = conditions: Homo sapiens, GI-ME-N;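 note: growth inhibition of human GI-ME-N cells, read out with a cell viability assay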
Description: SANGER: Inhibition of human GI-ME-N cell growth in a cell viability assay.

DEL = conditions: Homo sapiens, DEL;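 note: growth inhibition of the human DEL cell line, read out with a cell viability assay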
Description: SANGER: Inhibition of human DEL cell growth in a cell viability assay.

MS-1 = conditions: Homo sapiens, MS-1
Description: SANGER: Inhibition of human MS-1 cell growth in a cell viability assay.

TE-6 = conditions: Homo sapiens, TE-6;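 note: growth inhibition of TE-6 cells, read out with a cell viability assay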
Description: SANGER: Inhibition of human TE-6 cell growth in a cell viability assay.

NB13 = conditions: Homo sapiens, NB13;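 note: cell viability readout measuring growth inhibition of human NB13 cells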
Description: SANGER: Inhibition of human NB13 cell growth in a cell viability assay.

SK-LMS-1 = conditions: Homo sapiens, SK-LMS-1;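 note: growth inhibition of human SK-LMS-1 cells, read out with a cell viability assay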
Description: SANGER: Inhibition of human SK-LMS-1 cell growth in a cell viability assay.

QIMR-WIL = conditions: Homo sapiens, QIMR-WIL;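 note: growth inhibition of QIMR-WIL cells, read out with a cell viability assay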
Description: SANGER: Inhibition of human QIMR-WIL cell growth in a cell viability assay.

Becker = conditions: Homo sapiens, Becker;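 note: growth inhibition of Becker cells, read out with a cell viability assay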
Description: SANGER: Inhibition of human Becker cell growth in a cell viability assay.

COc1cccc2c1C(=O)c1c(O)c3c(c(O)c1C2=O)C[C@@](O)(C(=O)CO)C[C@@H]3O[C@H]1C[C@H](N)[C@H](O)[C@H](C)O1 [DOXORUBICIN]
IC50 (LB373-MEL-D): 345 nM | IC50 (J-RT3-T3-5): 96.3 nM | IC50 (SNU-C2B): 461 nM | IC50 (KINGS-1): 1020 nM | IC50 (MOLT-4): 22.9 nM | IC50 (EW-13): 9.63 nM | IC50 (NCI-H1770): 133 nM | IC50 (A101D): 51.5 nM | IC50 (A704): > 1020 nM | IC50 (SW 962): 69.9 nM | IC50 (SK-NEP-1): 116 nM | IC50 (CTV-1): 16.1 nM | IC50 (MFM-223): > 1020 nM | IC50 (GT3TKB): 67.2 nM | IC50 (MHH-PREB-1): 230 nM | IC50 (D-392MG): 249 nM | IC50 (D-263MG): 306 nM | IC50 (HOP-62): 35.9 nM | IC50 (BT-474): 779 nM | IC50 (MLMA): 122 nM | IC50 (OCI-AML2): 45 nM | IC50 (EKVX): 872 nM | IC50 (IST-MES1): 323 nM | IC50 (OS-RC-2): 182 nM | IC50 (EW-1): 61.3 nM | IC50 (LAMA-84): 437 nM | IC50 (DMS-79): > 1020 nM | IC50 (CW-2): > 1020 nM | IC50 (PSN1): 11.2 nM | IC50 (EOL1): 27.8 nM | IC50 (LXF-289 cell line): 109 nM | IC50 (RPMI-8226): 213 nM | IC50 (KMOE-2): 576 nM | IC50 (KURAMOCHI): 127 nM | IC50 (NCI-H1355): 152 nM | IC50 (SW982): 6.05 nM | IC50 (BB65-RCC): 149 nM | IC50 (HT-144): 3.51 nM | IC50 (RKO): 22.3 nM | IC50 (KG-1): 362 nM | IC50 (SCC-15): 188 nM | IC50 (GI-ME-N): 93.3 nM | IC50 (DEL): 38.4 nM | IC50 (MS-1): 253 nM | IC50 (TE-6): 470 nM | IC50 (NB13): 135 nM | IC50 (SK-LMS-1): 53.2 nM | IC50 (QIMR-WIL): 20.7 nM | IC50 (Becker): 522 nM

Nc1ccn([C@@H]2O[C@H](CO)[C@@H](O)C2(F)F)c(=O)n1 [GEMCITABINE]
IC50 (LB373-MEL-D): > 1020 nM | IC50 (J-RT3-T3-5): 67.2 nM | IC50 (SNU-C2B): > 1020 nM | IC50 (KINGS-1): > 1020 nM | IC50 (MOLT-4): 65.3 nM | IC50 (EW-13): < 4 nM | IC50 (NCI-H1770): 55 nM | IC50 (A101D): 9.37 nM | IC50 (A704): 53.8 nM | IC50 (SW 962): 52.4 nM | IC50 (SK-NEP-1): 22.9 nM | IC50 (CTV-1): 14.1 nM | IC50 (MFM-223): > 1020 nM | IC50 (GT3TKB): 42.7 nM | IC50 (MHH-PREB-1): 248 nM | IC50 (D-392MG): 1020 nM | IC50 (D-263MG): > 1020 nM | IC50 (HOP-62): 223 nM | IC50 (BT-474): > 1020 nM | IC50 (MLMA): 272 nM | IC50 (OCI-AML2): < 4 nM | IC50 (EKVX): > 1020 nM | IC50 (IST-MES1): 774 nM | IC50 (OS-RC-2): 6.68 nM | IC50 (EW-1): 2.22 nM | IC50 (LAMA-84): 115 nM | IC50 (DMS-79): > 1020 nM | IC50 (CW-2): > 1020 nM | IC50 (PSN1): < 4 nM | IC50 (EOL1): < 4 nM | IC50 (LXF-289 cell line): 3.31 nM | IC50 (RPMI-8226): 16 nM | IC50 (KMOE-2): 155 nM | IC50 (KURAMOCHI): > 1020 nM | IC50 (NCI-H1355): < 4 nM | IC50 (SW982): < 4 nM | IC50 (BB65-RCC): < 4 nM | IC50 (HT-144): 4.92 nM | IC50 (RKO): < 4 nM | IC50 (KG-1): 62.2 nM | IC50 (SCC-15): 121 nM | IC50 (GI-ME-N): > 1020 nM | IC50 (DEL): < 4 nM | IC50 (MS-1): 46.3 nM | IC50 (TE-6): 250 nM | IC50 (NB13): 38.2 nM | IC50 (SK-LMS-1): < 4 nM | IC50 (QIMR-WIL): < 4 nM | IC50 (Becker): 267 nM
